Data reported in patent US20110263642A1, “METHODS FOR TREATMENT OF MULTIPLE SCLEROSIS” (FibroGen, Inc., priority 2008, published 2011).
Like-named read-outs stand apart in the source and are kept apart here.

Experiments:
[1] = system: EAE animal model of multiple sclerosis; test: EAE induced by MBP injection in Lewis rats, neurological disease scoring (first study, dosing day 3-21); assay type: in vivo; details: for reduction in disease severity compared to vehicle-treated control EAE animals: day 3 to day 21 after MBP injection
Description: Experimental allergic encephalomyelitis (EAE, also referred to as experimental autoimmune encephalomyelitis) is currently the best animal model of human multiple sclerosis (MS). In this model, induction of EAE occurs following, for example, injection of spinal cord homogenate or central nervous system (CNS) antigens, such as myelin basic protein (MBP), myelin olidgodendrocyte glycoprotein, or proteolipid protein. Approximately 10 days following injection of CNS antigens, susceptible rats (e.g., Lewis rats) develop a progressive paralysis similar to that observed in humans.
Female Lewis rats of approximately 220 grams were used in this study (Janvier; Le Genest St Isle, France). Compounds of the invention were formulated in water containing 10% cremophor and 60 mM L-histidine to achieve a final concentration of either 2 mg/ml or 6 mg/ml. Dexamethasone was dissolved in saline at a concentration of 0.1 mg/ml.
Induction of EAE by injection with myelin basic protein (MBP) antigen was performed as follows. Prior to injection with the MBP antigen (day 0), rats were anaesthetized by injection of 60 mg/kg of ketamine (Imalgene500®, Rhone Mérieux, Lyon, France) plus 4 mg/kg of xylazine (Rompum 2%, Bayer Pharma, Kiel, Germany). Rats were then injected in the hind footpad with a total volume of 100 μl of MBP inoculum solution per paw containing 100 μg of MBP antigen (Sigma, L'Isle d'Abeau Chesnes, France) emulsified (1:1) containing incomplete Freund's adjuvant (IFA) (Sigma, L'Isle d'Abeau Chesnes, France) and 500 μg of heat-inactivated mycobacterium tuberculosis (strain H 37 RA from Difco). Control rats were similarly injected with an equivalent volume of inoculum without MBP. […]
Neurological scoring was performed daily from day 7 to day 21 following BP injection. […] Analysis of variance (ANOVA) was performed on data from the measured (clinical score) or the calculated (severity score) parameters. […]
(§1) Cumulative EAE disease score, used as a measure of overall disease severity, was determined by adding all disease/neurological scores for each animal over the time course of the experiment.

[2] = system: EAE animal model of multiple sclerosis; test: EAE induced by MBP injection in Lewis rats, prophylactic versus treatment dosing (second series); assay type: in vivo
Procedure: In another series of experiments, the effectiveness of compounds and methods of the present invention on treating established multiple sclerosis in an EAE model was examined as follows. EAE was induced in female Lewis rats (200-220 g) as described above. Compound of the invention (30 mg/kg) or vehicle control was administered p.o. daily from day 3 to day 21 following MBP injection (prophylactic group) or from the day first symptoms appeared to day 21 (treatment group). Dexamethasone (1 mg/kg) was administered subcutaneously at 1 mg/kg from day 8 to day 12 following MBP injection.
Neurological scoring was performed daily from day 7 to day 21 following […]. Grading of disease severity (i.e., disease score) was based on the following observations performed by two different observers: 0=no abnormality; 1=distal weakness of the tail; 2=complete weakness of the tail; 3=mild weakness in one or two hindlimbs; 4=moderate paraparesia of one or two hindlimbs; 5=total paraplegia. Analysis of variance (ANOVA) was performed on data from the measured (clinical score) or the calculated (severity score) parameters. Fisher's Protected Least Significant Difference was used for pairwise comparisons. p value≦0.05 were considered significant.
as §1

[3] = system: Oligodendrocytes (MO3.13 cells); test: Ceramide-induced cell death of oligodendrocytes, Calcein AM viability; assay type: cell-based; details: for viability at 20 µM: ceramide 2.25 μM, compound 20 μM, non-ceramide control = 100
Description: (See e.g., Craighead et al. (2000) Neurosci Lett. 278:125-8; Jana et al. (2007) J Neuroimmune Pharmacol. 2:184-93; Jana et al. (2009) J Neurol Sci. 278:5-15; Singh et al. (1998) J Biol. Chem. 273:20354-62.) In this model, addition of ceramide to cultured oligodendrocytes results in oxidative stress-induced cell death (i.e. apoptosis). The effect of compounds and methods of the present invention on the ability to improve oligodendrocyte viability following ceramide challenge was examined as follows. Oligodendrocytes (MO3.13 cells; Cedarlane Laboratories, Burlington, N.C.) were plated in 96-well culture dishes at a density of 4000 cells per well and cultured at 37° C., 10% CO2 in DMEM containing L-glutamine, sodium pyruvate, and 25 mM glucose (Mediatech Inc., Manassas, Va.) and supplemented with 10% FBS (Invitrogen Corporation, Carlsbad, Calif.). The next day, the plating media was removed and replaced with DMEM containing L-glutamine (Invitrogen Corporation, Carlsbad, Calif.) and supplemented with 5.5 mM glucose. Cells were then treated with vehicle (0.015% DMSO) or ceramide (Sigma-Aldrich, St. Louis, Mo.) plus vehicle (0.05% DMSO) or a compound of the invention (20 μM).
For cells treated longer than 3 days, half the media was removed after the third day of treatment and replaced with an equal volume of fresh treatment media containing vehicle (0.015% DMSO) or ceramide plus vehicle (0.05% DMSO) or a compound of the invention.
Cell viability was assessed 3, 4, and 5 days after treatment using the following protocol. Treatment media was removed from the cells and 100 ul of 1.67 uM Calcein AM reagent (Invitrogen Corporation, Carlsbad, Calif.) prepared in DMEM containing L-glutamine (Invitrogen Corporation, Carlsbad, Calif.) and supplemented with 5.5 mM glucose was added to each well. Cells were returned to 37° C. in a 10% CO2 incubator for approximately 30 minutes before assessing fluorescence (Ex 485 nm/Em 538 nm) using a microplate reader (Molecular Devices, Sunnyvale, Calif.). Images were taken of representative wells using a fluorescent microscope equipped with a camera (Nikon, Melville, N.Y.) and imaging software (Nikon, Melville, N.Y.).

**Q.** What does the source list for N#Cc1nc(C(=O)NCC(=O)O)c(O)c2c(Oc3ccccc3)cccc12 [Compound A, [(1-Cyano-4-hydroxy-5-phenoxy-isoquinoline-3-carbonyl)-amino]-acetic acid]?
**A.** reduction in disease severity compared to vehicle-treated control EAE animals ([1]; 10 mg/kg p.o. daily): 17%; reduction in disease severity compared to vehicle-treated control EAE animals ([1]; 30 mg/kg p.o. daily, p<0.05): 46%; cumulative disease score (AUC) ([1]; either 10 mg/kg or 30 mg/kg p.o. daily, day 3-21, FIG. 2): reduced; cumulative disease score (AUC) ([2]; 30 mg/kg p.o., both prophylactic group and treatment group, FIGS. 4A and 4B): reduced; reduction in disease severity compared to vehicle-treated control EAE animals ([2]; prophylactic group: 30 mg/kg p.o. daily, day 3 to day 21): 31%; reduction in disease severity compared to vehicle-treated control EAE animals ([2]; treatment group: 30 mg/kg p.o. daily, first symptom to day 21, p<0.05): 19%; viability at 20 µM ([3]; 72 h, read-out: % Viable at Day 3): 82%; viability at 20 µM ([3]; 96 h, read-out: % Viable at Day 4): 46%; viability at 20 µM ([3]; 120 h, read-out: % Viable at Day 5): 33%; increase in viability compared to vehicle treated oligodendrocytes ([3]; ceramide-challenged, day 5): 3 fold
